These results are taken from publication PMC4841536, “Characterization of the Anti-HCV Activities of the New Cyclophilin Inhibitor STG-175” (PLoS ONE, 2016).

In general, CC50 refers to the concentration that lowers cell viability or growth by half.

Series [1] deals with D320E/Y321N NS5A Con1 GT1b replicon. The series can be described thus: microbe, parasite or virus in culture. In kind it is cell-based, hepatitis C virus. The note with it: for EC50: Hepatitis C virus, GT1B. From the text: (§1) The GT1b subgenomic firefly luciferase reporter replicon pFK-I389/NS3–3 was provided by R. Bartenschlager. The GT1B subgenomic NS3, NS5A and NS5B mutants were created via homologous recombination using the In-Fusion HD Cloning kit (Clontech) as we described previously. […] The in vitro transcription of wild-type and mutant Con1 RNA was accomplished using the T7 MEGAscript kit (Ambion) by following the manufacturer’s instructions. In vitro-transcribed RNAs were introduced into Huh7.5.1 cells by electroporation. Trypsinized cells were washed twice and resuspended in phosphate-buffered saline (PBS) (calcium-free and magnesium-free) at 1x 10^7 cells per ml. Ten micrograms of RNA for each mutant was mixed with 0.4 mL of cells in a 4-mm cuvette, and a Bio-Rad Gene Pulser system was used to deliver a single pulse at 0.27 kV, 100 ohms, and 960 μF. Cells were then plated in 12-well dishes. RNA transfection efficiency and HCV subgenomic replication were assessed by reverse transcription-quantitative PCR (RT-qPCR) and presented as genome equivalents (GE) per microgram of total RNA as described previously. We measured by RT-qPCR the replication of wild-type, STG-175-, NS5Ai-, NS3i- and NS5Bi-resistant mutants in the presence of increasing concentrations of SGT-175, daclatasvir, telaprevir, boceprevir and sofosbuvir over a period of 8 days.
(§2) D320E and D320E/Y321N NS5A substitutions were introduced into wild-type Con1 GT1 replicon as we described previously. Con1-NS5A-D320E, and Con1-NS5A-D320E/Y321N were generated using the following forward and reverse phosphorylated (p) primer sets, respectively: (p)[…] and (p)[…], and (p)[…] and (p)[…]. PCR products were circularized with Quick T4 DNA ligase (NEB) for 5 min and transformed into NEB 10-beta competent cells. The NS5A gene was sequenced to confirm the introduced substitutions.
(§3) Fig 3 Replicon clearance, replication rebound and resistance analyses. […] Then drugs were removed to allow viral replication rebound to occur. At each passage, samples of cells were collected, RNA extracted and analyzed by RT-PCR for HCV RNA levels. B. Emergence of resistance: Con1 replicon Huh-7 cells were passaged 22 times in the absence or presence of STG-175 or selected DAAs. At each passage, sample of cells were collected, RNA extracted and analyzed by RT-PCR for HCV RNA levels. C. […] Data are expressed as number of HCV RNA copies per cell. […] Data are expressed as mean of relative light units and calculated EC50s are presented. […] E. Degree of resistance of D320E and Y321N Con1 variants: Left panel. Wild-type (WT), D320E and D320/Y321N NS5A Con1 RNA were electroporated into Huh7.5.1 cells and replication monitored over 8 days by quantifying the levels of intracellular HCV RNA. Right panel. Same as just above except that increasing concentrations of STG-175 were added at the time of the electroporation. […] STG-175 is taken as the substance from the printed x-axis title 'STG-175 in Log nM'.
(§4) To determine whether the D320E and Y321N substitutions truly render HCV resistant to STG-175, they were introduced into wild-type Con1 replicon as we described previously. Introduction of the substitutions was verified by sequencing.

For series [2], the system named is D320E NS5A Con1 GT1b replicon. Kind of series: microbe, parasite or virus in culture. In kind it is cell-based, hepatitis C virus. The note with it: for EC50: Hepatitis C virus, GT1B.
Description: as §1, §2, §3, §4

The nature of series [3]: alamarBlue cytotoxicity (CC50), GT1a replicon cell line. The note with it: human. Here is the method: The anti-HCV activity of STG-175 was conducted using a panel of luciferase reporter replicon cell lines including GT1a, GT1b, GT2a, GT3a and GT4a as we described previously. The GT1a subgenomic renilla luciferase reporter replicon H77 RLucP (7) was supplied by Dr. Delaney. The GT1b subgenomic firefly luciferase reporter replicon pFK-I389/NS3-3’ [29] was supplied by Dr. Bartenschlager. The GT1B subgenomic NS3, NS5A and NS5B mutants were created via homologous recombination using the In-Fusion HD Cloning kit (Clontech) as we described previously. The GT2a genomic luciferase reporter replicon Luc-Neo-JFH-1 was generated as previously. The plasmid pFK-Luc-JFH1 was supplied from Drs. […] The CellTiter-Fluor™ Cell Viability Assay is a non-lytic fluorescence assay, which measures the number of live cells. […] Luciferase activity was determined using the Luciferase Assay System (Promega) in a Berthold luminometer. […] Viable cells continuously convert resazurin to resorufin, increasing the overall fluorescence and color of the media surrounding cells.
Fig 2 Anti-HCV activities of STG-175 among GTs. […] Luciferase activity was determined using the Luciferase Assay System in a Berthold luminometer. […] Data are expressed as mean of relative light units and calculated EC50s are presented. […]

Where “and” joins values, the source holds several entries; their conditions need not be identical. Identical values can stand only once. Like-named read-outs stand apart in the source and are kept apart here. Where only a bound is given, the exact number is not on record here.

Regarding `CC=CCC(C)C(O)C1C(=O)NC(CC)C(=O)N(C)C(CSCCCCO)C(=O)N(C)C(CC(C)(C)O)C(=O)NC(C(C)C)C(=O)N(C)C(CC(C)C)C(=O)NC(C)C(=O)NC(C)C(=O)N(C)C(CC(C)C)C(=O)N(C)C(CC(C)C)C(=O)N(C)C(C(C)C)C(=O)N1C` (stereo not drawn) [STG-175], the EC50 in series [1] (Huh-7.5.1, 144 h, read-out: EC50, D320E/Y321N replicon) is 75 nM; in series [1] (Huh-7.5.1, 192 h, read-out: EC50, D320E/Y321N replicon) it was 102 nM; in series [1] (Huh-7.5.1, 192 h, read-out: EC50 D320E/Y321N NS5A) it was 77.9 nM; in series [2] (Huh-7.5.1, 144 h, read-out: EC50, D320E replicon) it was 61.6 nM; in series [2] (Huh-7.5.1, 192 h, read-out: EC50, D320E replicon), 83.2 nM; in series [2] (Huh-7.5.1, 192 h, read-out: EC50 D320E NS5A), 62.8 nM. Also, the “fold more resistant than wild-type replicon, D320E/Y321N” value in series [1] (day 6) is given as 2.1 fold; in series [1] (day 8) it was 2.9 fold. Also, the “fold resistance conferred by NS5A D320E and Y321N substitutions (summary)” value in series [1] (variants emerged under STG-175 pressure) was ~ 2 fold and 2-3 fold. For the same compound, the “fold more resistant than wild-type replicon, D320E” value in series [2] (day 6) is on record as 1.7 fold; in series [2] (day 8), 2.4 fold. In series [3], the CC50 at 72 h is greater than 10000 nM.
